Experiment [1] deals with hGYS2 enzyme (recombinant hGYS2/GN1 protein) (Homo sapiens (Human), UniProt P54840). In words: GYS2 coupled enzyme assay (PK/LDH). As to conditions: geometric mean of at least 2 assay runs on separate days, read-out: Avg_IC50. The experiment is classed as biochemical. In outline: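 hGYS2/GN1 200 nM; UDP-Glc 2 mM; glycogen 0.2%; G6P 2 mM; PEP 2 mM, NADH 0.6 mM, PK/LDH 20 U/mL. 50 mM Tris pH 7.5, MgCl2, KCl, BSA, TCEP, 2.5% DMSO. Kinetic A340, 10 min. IC50 = geomean of ≥2 runs.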
hGYS2 enzyme (recombinant hGYS2/GN1 protein), sequence (P54840 whole entry): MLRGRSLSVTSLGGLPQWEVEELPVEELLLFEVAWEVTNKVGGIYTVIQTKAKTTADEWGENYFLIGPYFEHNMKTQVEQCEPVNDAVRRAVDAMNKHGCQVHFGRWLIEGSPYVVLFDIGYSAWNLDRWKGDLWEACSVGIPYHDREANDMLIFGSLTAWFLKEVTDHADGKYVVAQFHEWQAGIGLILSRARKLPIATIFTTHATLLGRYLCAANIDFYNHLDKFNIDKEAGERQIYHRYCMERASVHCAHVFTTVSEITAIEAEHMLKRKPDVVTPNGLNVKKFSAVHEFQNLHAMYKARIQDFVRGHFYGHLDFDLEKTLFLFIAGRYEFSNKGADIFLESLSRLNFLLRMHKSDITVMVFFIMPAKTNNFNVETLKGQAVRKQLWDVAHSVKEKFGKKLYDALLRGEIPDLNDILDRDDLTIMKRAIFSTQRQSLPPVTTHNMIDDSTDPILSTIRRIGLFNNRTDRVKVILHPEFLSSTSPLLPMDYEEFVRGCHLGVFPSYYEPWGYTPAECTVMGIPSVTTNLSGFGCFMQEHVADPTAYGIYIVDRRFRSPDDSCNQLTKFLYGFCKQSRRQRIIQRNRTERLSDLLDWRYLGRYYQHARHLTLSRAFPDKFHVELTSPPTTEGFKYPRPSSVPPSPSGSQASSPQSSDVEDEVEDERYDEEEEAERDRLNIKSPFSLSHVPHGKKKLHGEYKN
hGYS2 enzyme (recombinant hGYS2/GN1 protein), sequence (P46976 whole entry partner): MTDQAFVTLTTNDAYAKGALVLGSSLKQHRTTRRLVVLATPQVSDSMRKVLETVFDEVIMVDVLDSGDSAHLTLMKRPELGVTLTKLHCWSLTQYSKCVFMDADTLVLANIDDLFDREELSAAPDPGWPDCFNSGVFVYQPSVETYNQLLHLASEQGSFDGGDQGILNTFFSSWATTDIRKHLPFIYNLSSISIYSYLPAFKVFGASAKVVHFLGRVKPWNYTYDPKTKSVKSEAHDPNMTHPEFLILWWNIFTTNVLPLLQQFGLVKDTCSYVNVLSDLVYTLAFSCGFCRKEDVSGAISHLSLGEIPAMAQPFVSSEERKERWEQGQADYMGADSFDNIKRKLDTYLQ

Experiment [2] concerns hGYS1 enzyme / glycogen synthesis in HeLa cells. In words: GYS1 cell based assay (glycogen synthesis, Glucose-glo). To be noted: Homo sapiens, HeLa, 24 h, 24 h incubation, 20 mM glucose, geometric mean of at least 2 runs. On the set-up: species or system human. The procedure, abridged:
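HeLa cells starved 24 h in medium containing only 1× Glutamax were plated onto compound in medium with 20 mM glucose (1% DMSO final) for 24 h, 37 °C, 5% CO2. Acid lysates were Tris-quenched, glucoamylase-digested (pH 5.3, 1 h, 37 °C) and read by Glucose-glo luminescence. IC50 came from Hill fits, as geometric mean of ≥2 runs.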

In experiment [3] the target is hGYS1 enzyme (recombinant hGYS1/GN1 protein) (Homo sapiens (Human), UniProt P13807). The experiment is described as follows: GYS1 coupled enzyme assay (PK/LDH). The experiment is classed as biochemical. As to conditions: hGYS1/GN1 50 nM, UDP-Glucose 0.8 mM, G6P 1 mM; geometric mean of at least 2 runs.
hGYS1 enzyme (recombinant hGYS1/GN1 protein), sequence (P13807 whole entry): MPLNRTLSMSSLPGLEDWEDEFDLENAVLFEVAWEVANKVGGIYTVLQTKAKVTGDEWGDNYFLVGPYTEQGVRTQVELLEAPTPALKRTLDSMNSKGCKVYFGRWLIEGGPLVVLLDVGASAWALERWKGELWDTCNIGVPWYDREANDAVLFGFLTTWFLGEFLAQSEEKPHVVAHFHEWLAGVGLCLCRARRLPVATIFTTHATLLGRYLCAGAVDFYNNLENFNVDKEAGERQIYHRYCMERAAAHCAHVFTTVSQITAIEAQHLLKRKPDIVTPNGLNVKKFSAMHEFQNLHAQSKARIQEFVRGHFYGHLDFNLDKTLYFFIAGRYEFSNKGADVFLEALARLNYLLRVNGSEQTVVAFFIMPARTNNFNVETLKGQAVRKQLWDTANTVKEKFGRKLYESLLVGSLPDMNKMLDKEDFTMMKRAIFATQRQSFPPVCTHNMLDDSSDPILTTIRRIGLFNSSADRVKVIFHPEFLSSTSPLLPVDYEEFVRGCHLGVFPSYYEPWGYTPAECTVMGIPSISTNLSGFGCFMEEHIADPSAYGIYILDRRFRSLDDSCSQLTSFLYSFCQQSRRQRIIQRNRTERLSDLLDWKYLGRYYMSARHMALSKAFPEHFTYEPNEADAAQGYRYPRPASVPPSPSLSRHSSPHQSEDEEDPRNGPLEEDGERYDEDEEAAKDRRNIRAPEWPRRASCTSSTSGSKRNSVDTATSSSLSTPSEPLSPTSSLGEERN
hGYS1 enzyme (recombinant hGYS1/GN1 protein), sequence (P46976 whole entry partner): as the sequence (P46976 whole entry partner) above

Turning to `CCn1cc(CC(=O)N2C[C@H](F)C[C@H]2C(=O)N[C@@H](c2ccccc2)c2ccc(C3CC(F)(F)C3)c(F)n2)ccc1=O` [Compound 519, (2S,4R)-N-[(S)-[5-(3,3-difluorocyclobutyl)-6-fluoropyridin-2-yl](phenyl)methyl]-1-[2-(1-ethyl-6-oxo-1,6-dihydropyridin-3-yl)acetyl]-4-fluoropyrrolidine-2-carboxamide], the IC50 was greater than 100000 nM in experiment [1], 220 nM in experiment [2] and 8 nM in experiment [3].

`O=C(N[C@H](c1ccccc1)c1ccc(C2CC(F)(F)C2)c(F)n1)[C@@H]1C[C@@H](F)CN1C(=O)Cc1ccc(=O)[nH]c1` [Compound 520, (2S,4R)-N-[(R)-[5-(3,3-difluorocyclobutyl)-6-fluoropyridin-2-yl](phenyl)methyl]-4-fluoro-1-[2-(6-oxo-1,6-dihydropyridin-3-yl)acetyl]pyrrolidine-2-carboxamide]: the IC50 in experiment [1] is greater than 100000 nM; in experiment [2], greater than 30000 nM; in experiment [3], 557 nM.

As for `Cc1cc(CC(=O)N2C[C@H](F)C[C@H]2C(=O)N[C@@H](c2ccccc2)c2ccc(C3CC(F)(F)C3)c(F)n2)c[nH]c1=O` [Compound 522, (2S,4R)-N-[(S)-[5-(3,3-difluorocyclobutyl)-6-fluoropyridin-2-yl](phenyl)methyl]-4-fluoro-1-[2-(5-methyl-6-oxo-1,6-dihydropyridin-3-yl)acetyl]pyrrolidine-2-carboxamide], the IC50 in experiment [1] is greater than 100000 nM; in experiment [2] it was 450 nM; in experiment [3] it was 5 nM.

For `CN(C)C(=O)NCC(=O)N1C[C@H](F)C[C@H]1C(=O)N[C@@H](c1ccccc1)c1ccc(C2CC(F)(F)C2)cn1` [Compound 532, (2S,4R)—N—((S)-(5-(3,3-difluorocyclobutyl)pyridin-2-yl)(phenyl)methyl)-1-((dimethylcarbamoyl)glycyl)-4-fluoropyrrolidine-2-carboxamide], the IC50 is greater than 100000 nM in experiment [1], 1180 nM in experiment [2] and 65 nM in experiment [3].

As to `O=C(N[C@@H](c1ccccc1)c1ccc(C2CC(F)(F)C2)cn1)[C@@H]1C[C@@H](F)CN1C(=O)CNC(=O)N1CCC1` [Compound 533, (2S,4R)-1-{2-[(azetidine-1-carbonyl)amino]acetyl}-N-[(S)-[5-(3,3-difluorocyclobutyl)pyridin-2-yl](phenyl)methyl]-4-fluoropyrrolidine-2-carboxamide], the IC50 in experiment [1] was greater than 100000 nM; in experiment [2], 1210 nM; in experiment [3] it was 43 nM.

As for `O=C(N[C@@H](c1ccccc1)c1ccc(C2CC(F)(F)C2)cn1)[C@@H]1C[C@@H](F)CN1C(=O)Cc1cnn[nH]1` [Compound 534, (2S,4R)-N-[(S)-[5-(3,3-difluorocyclobutyl)pyridin-2-yl](phenyl)methyl]-4-fluoro-1-[2-(1H-1,2,3-triazol-5-yl)acetyl]pyrrolidine-2-carboxamide], the IC50 was greater than 100000 nM in experiment [1], 1280 nM in experiment [2] and 57 nM in experiment [3].

`Cc1cn(CC(=O)N2C[C@H](F)C[C@H]2C(=O)N[C@@H](c2ccccc2)c2ccc(C3CC(F)(F)C3)cn2)c(=O)[nH]c1=O` [Compound 535, (2S,4R)-N-[(S)-[5-(3,3-difluorocyclobutyl)pyridin-2-yl](phenyl)methyl]-4-fluoro-1-[2-(5-methyl-2,4-dioxo-1,2,3,4-tetrahydropyrimidin-1-yl)acetyl] pyrrolidine-2-carboxamide]: the IC50 in experiment [1] is greater than 100000 nM; in experiment [2] it was 1220 nM; in experiment [3] it was 12 nM.

Take `Cc1cnc(CC(=O)N2C[C@H](F)C[C@H]2C(=O)N[C@@H](c2ccccc2)c2ccc(C3CC(F)(F)C3)cn2)o1` [Compound 536, (2S,4R)-N-[(S)-[5-(3,3-difluorocyclobutyl)pyridin-2-yl](phenyl)methyl]-4-fluoro-1-[2-(5-methyl-1,3-oxazol-2-yl)acetyl]pyrrolidine-2-carboxamide]: the IC50 in experiment [1] is greater than 100000 nM; in experiment [2], 350 nM; in experiment [3], 24 nM.

As for `O=C(N[C@@H](c1ccccc1)c1ccc(C2CC(F)(F)C2)cn1)[C@@H]1C[C@@H](F)CN1C(=O)Cn1cnc2ccccc21` [Compound 537, (2S,4R)-1-[2-(1H-1,3-benzodiazol-1-yl)acetyl]-N-[(S)-[5-(3,3-difluorocyclobutyl)pyridin-2-yl] (phenyl)methyl]-4-fluoropyrrolidine-2-carboxamide], the IC50 was greater than 100000 nM in experiment [1], 160 nM in experiment [2] and 11 nM in experiment [3].

`O=C(N[C@@H](c1ccccc1)c1ccc(C2CC(F)(F)C2)cn1)[C@@H]1C[C@@H](F)CN1C(=O)CNC(=O)N1CC(F)(F)C1` [Compound 538, (2S,4R)-1-{2-[(3,3-difluoroazetidine-1-carbonyl)amino]acetyl}-N-[(S)-[5-(3,3-difluorocyclobutyl)pyridin-2-yl](phenyl)methyl]-4-fluoropyrrolidine-2-carboxamide]: the IC50 in experiment [1] is greater than 100000 nM; in experiment [2], 1220 nM; in experiment [3], 48 nM.

As to `O=C(N[C@@H](c1ccccc1)c1ccc(C2CC(F)(F)C2)cn1)[C@@H]1C[C@@H](F)CN1C(=O)Cc1ncco1` [Compound 539, (2S,4R)-N-[(S)-[5-(3,3-difluorocyclobutyl)pyridin-2-yl] (phenyl)methyl]-4-fluoro-1-[2-(1,3-oxazol-2-yl)acetyl] pyrrolidine-2-carboxamide], the IC50 was greater than 100000 nM in experiment [1], 960 nM in experiment [2] and 68 nM in experiment [3].

As for `Cc1coc(CC(=O)N2C[C@H](F)C[C@H]2C(=O)N[C@@H](c2ccccc2)c2ccc(C3CC(F)(F)C3)cn2)n1` [Compound 540, (2S,4R)-N-[(S)-[5-(3,3-difluorocyclobutyl)pyridin-2-yl] (phenyl)methyl]-4-fluoro-1-[2-(4-methyl-1,3-oxazol-2-yl)acetyl] pyrrolidine-2-carboxamide], the IC50 is greater than 100000 nM in experiment [1], 590 nM in experiment [2] and 47 nM in experiment [3].

`Cc1nn(CC(=O)N2C[C@H](F)C[C@H]2C(=O)N[C@@H](c2ccccc2)c2ccc(C3CC(F)(F)C3)cn2)c(=O)o1` [Compound 541, (2S,4R)-N-[(S)-[5-(3,3-difluorocyclobutyl)pyridin-2-yl](phenyl)methyl]-4-fluoro-1-[2-(5-methyl-2-oxo-2,3-dihydro-1,3,4-oxadiazol-3-yl)acetyl]pyrrolidine-2-carboxamide]: the IC50 is greater than 100000 nM in experiment [1], 650 nM in experiment [2] and 55 nM in experiment [3].

Regarding `O=C(N[C@@H](c1ccccc1)c1ccc(C2CC(F)(F)C2)cn1)[C@@H]1C[C@@H](F)CN1C(=O)Cc1[nH]nnc1C(F)(F)F` [Compound 542, (2S,4R)-N-[(S)-[5-(3,3-difluorocyclobutyl)pyridin-2-yl] (phenyl)methyl]-4-fluoro-1-{2-[4-(trifluoromethyl)-1H-1,2,3-triazol-5-yl]acetyl} pyrrolidine-2-carboxamide], the IC50 in experiment [1] was greater than 100000 nM; in experiment [2], 1480 nM; in experiment [3], 11 nM.

For the compound `O=C(N[C@@H](c1ccccc1)c1ccc(C2CC(F)(F)C2)c(F)c1)[C@@H]1C[C@@H](F)CN1C(=O)CNC(=O)N1CCC1` [Compound 544, (2S,4R)-1-((azetidine-1-carbonyl)glycyl)-N—((S)-(4-(3,3-difluorocyclobutyl)-3-fluorophenyl)(phenyl)methyl)-4-fluoropyrrolidine-2-carboxamide], the IC50 in experiment [1] is greater than 100000 nM; in experiment [2] it was 260 nM; in experiment [3], 11 nM.

Source of the values: patent publication US11814367B2, “Inhibitors of glycogen synthase 1 (GYS1) and methods of use thereof” (Maze Therapeutics, Inc., priority 2021, dated 2023).
